Tests used:
CCL5 = settings: ref Mizumoto et al., 2013; cited from earlier work
NMR = target: the molecule itself; test: NMR

chondroitin sulfate [CS]
Affinity for CCL5 (CCL5): submicromolar affinities

dermatan sulfate [DS]
Affinity for CCL5 (CCL5): submicromolar affinities

B1: E66S CCL5 (natural protein)
chain: MSPYSSDTTPCCFAYIARPLPRAHIKEYFYTSGKCSNPAVVFVTRKNRQVCANPEKKWVREYINSLSMS
ratio of dimer-to-monomer (30 uM, 40 °C, without CS444) (NMR): ~1 | stoichiometry N (NMR): 2

Source: paper PMC4456249 (Structure (London, England : 1993), 2015)
